Test results reported in patent publication US20250346593A1, “IMIDAZO(1,2-1)PYRIDINE DERIVATIVES AS RIPK2 INHIBITORS” (Interline Therapeutics, Inc., priority 2022, published 2025).
Read-outs that look alike come from different tables or passages of the source.

Assays:
[1] = tested on: NF-κB pathway (SEAP) in THP1-Dual cells; experiment: THP-1 Dual cell SEAP assay (L18-MDP stimulated); type: cell-based; settings: Homo sapiens, THP1-Dual, read-out: NFkB THP1 IC50
[2] = target: GST-RIPK2 fusion protein (human RIPK2 amino acids 1-310) (Homo sapiens (Human), UniProt O43353); experiment: RIPK2 binding competition assay (TR-FRET, Tracer 199)
[3] = read-out: RIPK2 IC50, RIPK2 binding competition assay

Sequence of GST-RIPK2 fusion protein (human RIPK2 amino acids 1-310) (O43353 1-310): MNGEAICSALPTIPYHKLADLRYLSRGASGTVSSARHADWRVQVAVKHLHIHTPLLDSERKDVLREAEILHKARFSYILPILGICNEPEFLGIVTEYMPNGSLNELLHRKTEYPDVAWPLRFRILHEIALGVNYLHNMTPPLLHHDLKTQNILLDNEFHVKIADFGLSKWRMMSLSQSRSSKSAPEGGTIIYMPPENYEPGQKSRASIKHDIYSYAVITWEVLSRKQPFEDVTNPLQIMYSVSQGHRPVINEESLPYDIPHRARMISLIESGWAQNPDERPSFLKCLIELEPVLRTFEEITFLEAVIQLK

| SMILES | IC50 [1] [nM] | IC50 [2, 3] [nM] | IC50 [2] [nM] |
| --- | --- | --- | --- |
| COc1cc2ncc(-c3cncc(N)c3)n2cc1S(=O)(=O)C(C)(C)C [Example 30, 5-(6-(tert-butylsulfonyl)-7-methoxyimidazo[1,2-a]pyridin-3-yl)pyridin-3-amine] | > 1000 | > 20 |  |
| CNc1cc(-c2cnc3cc(OC)c(S(=O)(=O)C(C)(C)C)cn23)cc(OC)c1OC [Example 326, 5-(6-(tert-butylsulfonyl)-7-methoxyimidazo[1,2-a]pyridin-3-yl)-2,3-dimethoxy-N-methylaniline] | 50 to 250 |  | 1 to 2.5 |
| COc1cc2ncc(-c3cc(F)nc(NCCOC(F)F)c3)n2cc1S(=O)(=O)C(C)(C)C [Example 233, 4-(6-(tert-butylsulfonyl)-7-methoxyimidazo[1,2-a]pyridin-3-yl)-N-(2-(difluoromethoxy)ethyl)-6-fluoropyridin-2-amine] | < 50 | < 1 |  |
| COc1cc2ncc(-c3cc(F)c(N)nc3F)n2cc1S(=O)(=O)C(C)(C)C(F)F [Example 154, 5-(6-((1,1-difluoro-2-methylpropan-2-yl)sulfonyl)-7-methoxyimidazo[1,2-a]pyridin-3-yl)-3,6-difluoropyridin-2-amine] | 50 to 250 |  | 2.5 to 20 |
| COc1cc2ncc(-c3ccc(C)c(N)n3)n2cc1S(=O)(=O)C(C)(C)C [Example 332, 6-(6-(tert-butylsulfonyl)-7-methoxyimidazo[1,2-a]pyridin-3-yl)-3-methylpyridin-2-amine] | > 1000 | > 20 |  |
| CCc1ccc(-c2cnc3cc(OC)c(S(=O)(=O)C(C)(C)C)cn23)cc1NS(C)(=O)=O [Example 143, N-(5-(6-(tert-butylsulfonyl)-7-methoxyimidazo[1,2-a]pyridin-3-yl)-2-ethylphenyl) methanesulfonamide] | > 1000 |  | 2.5 to 20 |
| COc1cc2ncc(-c3cc(F)nc(NC[C@H](O)CO)c3)n2cc1S(=O)(=O)C(C)(C)C [Example 203, (S)-3-((4-(6-(tert-butylsulfonyl)-7-methoxyimidazo[1,2-a]pyridin-3-yl)-6-fluoropyridin-2-yl)amino)propane-1,2-diol] | 50 to 250 |  | 1 to 2.5 |
| CC(C)(C)S(=O)(=O)c1cn2c(-c3cc(F)c(N)nc3F)cnc2cc1OC(F)F [Example 116, 5-(6-(tert-butylsulfonyl)-7-(difluoromethoxy)imidazo[1,2-a]pyridin-3-yl)-3,6-difluoropyridin-2-amine] | > 1000 |  | 2.5 to 20 |
| COc1cc2ncc(-c3cc(F)nc(NC[C@H](C)O)c3)n2cc1S(=O)(=O)C(C)(C)C [Example 227, (2S)-1-({6-fluoro-4-[7-methoxy-6-(2-methylpropane-2-sulfonyl)imidazo[1,2-a]pyridin-3-yl]pyridin-2-yl}amino)propan-2-ol] | < 50 |  | 1 to 2.5 |
| COc1cc2ncc(-c3cccc(NS(C)(=O)=O)c3)n2cc1S(=O)(=O)C(C)(C)C [Example 261, N-(3-(6-(tert-butylsulfonyl)-7-methoxyimidazo[1,2-a]pyridin-3-yl)phenyl)methanesulfon-amide] | > 1000 |  | 2.5 to 20 |
| COc1cc2ncc(-c3cc(NCCCO)nc(C(F)(F)F)c3)n2cc1S(=O)(=O)C(C)(C)C [Example 232, 3-({4-[7-methoxy-6-(2-methylpropane-2-sulfonyl)imidazo[1,2-a]pyridin-3-yl]-6-(trifluoromethyl)pyridin-2-yl}amino)propan-1-ol] | 250 to 1000 |  | 2.5 to 20 |
| COc1cc2ncc(-c3cc(F)nc(NC4CCOCC4)c3)n2cc1S(=O)(=O)C(C)(C)C [Example 212, 4-(6-(tert-butylsulfonyl)-7-methoxyimidazo[1,2-a]pyridin-3-yl)-6-fluoro-N-(tetrahydro-2H-pyran-4-yl)pyridin-2-amine] | > 1000 |  | 2.5 to 20 |
| CCCS(=O)(=O)Nc1ccc(-c2cnc3cc(OC)c(S(=O)(=O)C(C)(C)C)cn23)cc1OC(F)F [Example 293, N-(4-(6-(tert-butylsulfonyl)-7-methoxyimidazo[1,2-a]pyridin-3-yl)-2-(difluoromethoxy)phenyl) propane-1-sulfonamide] | > 1000 | > 20 |  |
| CCOc1cc2ncc(-c3ccc(N)nc3F)n2cc1S(=O)(=O)C(C)C [Example 120, 5-[6-ethoxy-5-(isopropylsulfonyl)-1,3a-diaza-3-indenyl]-6-fluoro-2-pyridylamine] | > 1000 | > 20 |  |
| COc1cc2ncc(-c3cc(F)nc(NC(C)C)c3)n2cc1S(=O)(=O)C(C)(C)C [Example 178, 4-(6-(tert-butylsulfonyl)-7-methoxyimidazo[1,2-a]pyridin-3-yl)-6-fluoro-N-isopropylpyridin-2-amine] | < 50 | < 1 |  |
| CCCS(=O)(=O)Nc1nc(-c2cnc3cc(OC)c(S(=O)(=O)C(C)(C)C)cn23)ccc1C [Example 163, N-(6-(6-(tert-butylsulfonyl)-7-methoxyimidazo[1,2-a]pyridin-3-yl)-3-methylpyridin-2-yl)propane-1-sulfonamide] | > 1000 | > 20 |  |
| COc1cc2ncc(-c3cc(F)c(N)nc3F)n2cc1C1(F)CCN(C)CC1 [Example 122, 3,6-difluoro-5-[5-(4-fluoro-1-methyl-4-piperidyl)-6-methoxy-1,3a-diaza-3-indenyl]-2-pyridylamine] | > 1000 | > 20 |  |

| SMILES | IC50 [1] [nM] | IC50 [2, 3] [nM] | IC50 [2] [nM] |
| --- | --- | --- | --- |
| COc1cc2ncc(-c3csnc3OC)n2cc1S(=O)(=O)C(C)(C)C [Example 60, 4-(6-(tert-butylsulfonyl)-7-methoxyimidazo[1,2-a]pyridin-3-yl)-3-methoxyisothiazole] | > 1000 |  | 2.5 to 20 |
| COc1cc2ncc(-c3cn[nH]c3)n2cc1S(=O)(=O)C(C)(C)C [Example 4, 6-(tert-butylsulfonyl)-7-methoxy-3-(1H-pyrazol-4-yl)imidazo[1,2-a]pyridine] | 250 to 1000 |  | 2.5 to 20 |
| CCOc1cc2ncc(-c3cc(F)c(N)nc3C)n2cc1S(=O)(=O)C(C)C [Example 155, 5-(7-ethoxy-6-(isopropylsulfonyl)imidazo [1,2-a]pyridin-3-yl)-3-fluoro-6-methylpyridin-2-amine] | > 1000 | > 20 |  |
| COc1cc2ncc(-c3cccc(NS(=O)(=O)C(C)C)c3)n2cc1S(=O)(=O)C(C)(C)C [Example 278, N-(3-(6-(tert-butylsulfonyl)-7-methoxyimidazo[1,2-a]pyridin-3-yl)phenyl)propane-2-sulfonamide] | 250 to 1000 |  | 2.5 to 20 |
| COc1cc2ncc(-c3cc(C)c(OC)c(N)n3)n2cc1S(=O)(=O)C(C)(C)C [Example 335, 6-(6-(tert-butylsulfonyl)-7-methoxyimidazo[1,2-a]pyridin-3-yl)-3-methoxy-4-methylpyridin-2-amine] | > 1000 |  | > 20 |
| COc1cc2ncc(-c3cc(F)nc(N4CCN(C)CC4)c3)n2cc1S(=O)(=O)C(C)(C)C [Example 223, 1-{6-fluoro-4-[7-methoxy-6-(2-methylpropane-2-sulfonyl)imidazo[1,2-a]pyridin-3-yl]pyridin-2-yl}-4-methylpiperazine] | 50 to 250 |  | 2.5 to 20 |
| COc1cc2ncc(-c3cc(F)nc(NCCCO)c3)n2cc1S(=O)(=O)C(C)(C)C [Example 183, 3-((4-(6-(tert-butylsulfonyl)-7-methoxyimidazo[1,2-a]pyridin-3-yl)-6-fluoropyridin-2-yl)amino)propan-1-ol] | < 50 | < 1 |  |
| COc1cc2ncc(-c3cc(Cl)c(N)nc3OC)n2cc1S(=O)(=O)C(C)(C)C [Example 102, 5-(6-(tert-butylsulfonyl)-7-methoxyimidazo[1,2-a]pyridin-3-yl)-3-chloro-6-methoxypyridin-2-amine] | 250 to 1000 |  | 2.5 to 20 |
| COc1cc2ncc(-c3cnc(N)c(C)c3)n2cc1S(=O)(=O)C(C)(C)C [Example 68, 5-(6-(tert-butylsulfonyl)-7-methoxyimidazo[1,2-a]pyridin-3-yl)-3-methylpyridin-2-amine] | > 1000 | > 20 |  |
| CCCS(=O)(=O)Nc1cc(-c2cnn3cc(OC)c(S(=O)(=O)C(C)(C)C)cc23)cc(OC)c1OC [Example 140, N-(5-(5-(tert-butylsulfonyl)-6-methoxypyrazolo[1,5-a]pyridin-3-yl)-2,3-dimethoxyphenyl) propane-1-sulfonamide] | < 50 | < 1 |  |
| COc1cc2ncc(-c3cc(F)nc(NCCC(C)O)c3)n2cc1S(=O)(=O)C(C)(C)C (single isomer, unassigned) [Example 169, 4-((4-(6-(tert-butylsulfonyl)-7-methoxyimidazo[1,2-a]pyridin-3-yl)-6-fluoropyridin-2-yl)amino)butan-2-ol] | < 50 |  | < 1 |
| COc1cc2ncc(-c3cc(N)c(F)c(OC)c3)n2cc1S(=O)(=O)C(C)(C)C [Example 43, 5-(6-(tert-butylsulfonyl)-7-methoxyimidazo[1,2-a]pyridin-3-yl)-2-fluoro-3-methoxyaniline] | 50 to 250 |  | 2.5 to 20 |
| CCCS(=O)(=O)Nc1cc(-c2cnn3ccc(S(=O)(=O)C(C)(C)C)cc23)ccc1OC [Example 281, N-(5-(5-(tert-butylsulfonyl)pyrazolo[1,5-a]pyridin-3-yl)-2-methoxyphenyl)propane-1-sulfonamide] | 250 to 1000 |  | 2.5 to 20 |
| COc1cc2ncc(-c3cc(N)c(C#N)c(F)c3)n2cc1S(=O)(=O)C(C)(C)C [Example 333, 2-amino-4-(6-(tert-butylsulfonyl)-7-methoxyimidazo[1,2-a]pyridin-3-yl)-6-fluorobenzonitrile] | 250 to 1000 |  | 2.5 to 20 |
| COc1cc2ncc(-c3cnc(N)c(C#N)c3)n2cc1S(=O)(=O)C(C)(C)C [Example 23, 2-amino-5-(6-(tert-butylsulfonyl)-7-methoxyimidazo[1,2-a]pyridin-3-yl)nicotinonitrile] | > 1000 | > 20 |  |
| CCOc1nc(N)c(F)cc1-c1cnc2cc(OC)c(S(=O)(=O)C(C)(C)C)cn12 [Example 112, 5-(6-(tert-butylsulfonyl)-7-methoxyimidazo[1,2-a]pyridin-3-yl)-6-ethoxy-3-fluoropyridin-2-amine] | > 1000 |  | 2.5 to 20 |
